According to patent US20250011876A1, “EXTRACELLULAR RNA SIGNATURES OF MUTANT KRAS(G12C) CANCERS” (The Regents of the University of California, priority 2021, published 2025):

How the values were obtained:
[1] = test system: H358 3D spheroids; assay: H358 spheroid size/area; format: cell-based; conditions: 0.1 μM AMG 510
[2] = test system: EVs secreted by H358 cells; assay: Nanoparticle Tracking Analysis of EV size, ExoTIC isolation; format: cell-based; conditions: ExoTIC-isolated EVs, H358, AMG 510 treatment
Excerpt: To characterize exRNA profiles, EVs were isolated using two orthogonal approaches: affinity column extraction (ExoRNeasy) and size-based filtration (Exosome Total Isolation Chip: ExoTIC). Each EV isolation method captured distinct EV populations as determined by Nanoparticle Tracking Analysis (NTA) (FIGS. 5A and 5B) 18.19. The ExoTIC platform captured a low yield of EVs that fell within a size range matching that of exosomes (FIG. 5A).
The exRNA landscape varies based on EV subpopulations isolated by different approaches. We sought to investigate two orthogonal approaches to EV isolation, which yielded distinct EV populations with variable exRNA content. This highlights the importance of upstream EV isolation procedures before the exRNA sequencing pipeline. […] The significant shift in the maxima of the EV size distribution corresponding to AMG 510 treatment was accompanied by local maxima around particles of even smaller dimensions. Further EV size-fractionated exRNA sequencing will be necessary to determine the contribution of the different EV subpopulations to our exRNA data.
RNA Isolation & Purification. Total bulk RNA was isolated from H358 cells using Quick-RNA Mini-Prep kit (Zymogen). All RNA was quantified via NanoDrop-8000 Spectrophotometer. […] Extracted exosomal RNA were quantified via Qubit RNA HS assay kit (Thermo). […]

[3] = test system: KRAS and phosphorylated ERK in NCI-H358 cells; conditions: cited from earlier work

Row | SMILES | decrease of 3D spheroid size with respect to control [1] [%] | EV size profile after treatment [2] | time at which abundance of KRAS and pERK begin to recover [3] [hours]
1 | C=CC(=O)N1CCN(c2nc(=O)n(-c3c(C)ccnc3C(C)C)c3nc(-c4c(O)cccc4F)c(F)cc23)[C@@H](C)C1 [AMG 510, Sotorasib] | 20 | around 150 nm | –
2 | C=CC(=O)N1CCN(c2ncnc3c(F)c(-c4c(O)cccc4F)c(Cl)cc23)CC1 [ARS1620] | – | – | 24
